Values of other authors as cited in patent US20090202630A1, “ORALLY DISINTEGRATING TABLET COMPOSITIONS OF RANITIDINE AND METHODS OF MANUFACTURE” (priority 2008, published 2009).
Counter-ions that a name gives are not always drawn.

## CNC(=C[N+](=O)[O-])NCCSCc1ccc(CN(C)C)o1 [Ranitidine hydrochloride]
  solubility in water (in words): freely soluble
